The record followed here is publication PMC3005981 (Basic & clinical pharmacology & toxicology, 2010).

Data set [1] deals with CYP2D6 (Homo sapiens, UniProt P10635). Description: in vitro. The note with it: recombinant enzyme.
In data set [2] the test system is CYP2D6. The data set can be described thus: Inhibition of methadone N-demethylation. Particulars: human, microsomes, Inhibition of (R)- and (S)-EDDP formation, HLM with high CYP2D6 activity.
Data set [3] deals with CYP3A4 (Homo sapiens, UniProt P08684). Description: in vitro. The note with it: recombinant enzyme, Supersome.
Sequence of CYP3A4 (Homo sapiens, UniProt P08684) (P08684 whole entry): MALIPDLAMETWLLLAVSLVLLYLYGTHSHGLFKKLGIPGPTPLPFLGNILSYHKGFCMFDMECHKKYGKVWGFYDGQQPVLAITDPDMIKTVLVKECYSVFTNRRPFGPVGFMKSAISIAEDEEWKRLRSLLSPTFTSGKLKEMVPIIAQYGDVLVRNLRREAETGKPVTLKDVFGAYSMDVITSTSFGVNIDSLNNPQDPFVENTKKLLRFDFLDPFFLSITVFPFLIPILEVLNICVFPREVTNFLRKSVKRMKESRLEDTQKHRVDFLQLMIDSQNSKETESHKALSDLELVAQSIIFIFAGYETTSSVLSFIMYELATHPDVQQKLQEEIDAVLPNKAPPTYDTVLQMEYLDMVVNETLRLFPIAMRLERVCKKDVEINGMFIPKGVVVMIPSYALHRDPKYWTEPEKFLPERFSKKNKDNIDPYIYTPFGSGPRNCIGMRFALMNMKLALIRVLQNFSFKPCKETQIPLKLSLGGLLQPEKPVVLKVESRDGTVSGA
For data set [4] the following is noted: most incubates; limit of detection approximately 1.0 ng/ml.
The next data set concerns CYP3A4/5. Description: in vitro. Particulars: human, microsomes, HLM.
The next data set concerns CYP1A2. Description: Methadone metabolism in cDNA-expressed CYP Supersomes, with abundance scaling.
Another data set deals with CYP2A6. The data set is described as above.
The subject of the next data set is CYP2B6. Described as above.
In the next data set the test system is CYP2C8. The data set is described as above.
A further data set has as its system CYP2C9*1. Described as above.
The next data set has as its system CYP2C18. Described as above. The note with it: Abundance from Immunquantitation.
In a further data set the test system is CYP2C19. The data set is described as above.
The next data set has as its system CYP2D6*1. The description is as above.
Data set [5] concerns CYP3A4. Described as above.
In data set [6] the test system is CYP3A (testosterone 6β-hydroxylation). The data set can be described thus: Correlation of EDDP formation with CYP-specific activity in 15 phenotyped HLMs. The note with it: 15 HLMs; 750 ng/ml methadone, 0.5 mg/ml protein, 30 min; p<0.05.
Setting [7] is: % Inhibition of (R)-EDDP production.
[8] abbreviates: % Inhibition of (S)-EDDP production.
The mark [9] stands for this setting: Abundance from Immunquantitation.
[10] abbreviates: Abundance from Relative Activity Factor.

Where only a bound is given, the exact number is not on record here.

Sequence of CYP2D6 (Homo sapiens, UniProt P10635) (P10635 whole entry): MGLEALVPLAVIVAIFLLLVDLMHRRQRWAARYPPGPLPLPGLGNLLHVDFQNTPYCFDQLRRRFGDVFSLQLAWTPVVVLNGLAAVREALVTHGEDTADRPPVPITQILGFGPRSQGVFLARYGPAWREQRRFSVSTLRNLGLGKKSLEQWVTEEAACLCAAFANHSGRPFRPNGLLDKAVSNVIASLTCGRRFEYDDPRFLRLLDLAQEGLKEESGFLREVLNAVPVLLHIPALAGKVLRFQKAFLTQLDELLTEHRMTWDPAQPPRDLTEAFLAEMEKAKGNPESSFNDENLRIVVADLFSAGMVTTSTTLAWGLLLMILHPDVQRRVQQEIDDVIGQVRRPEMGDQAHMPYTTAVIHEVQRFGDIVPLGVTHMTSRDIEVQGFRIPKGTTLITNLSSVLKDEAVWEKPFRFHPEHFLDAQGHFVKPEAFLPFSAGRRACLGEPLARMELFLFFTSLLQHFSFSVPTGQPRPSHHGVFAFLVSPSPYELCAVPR

Take `Fc1ccc([C@@H]2CCNC[C@H]2COc2ccc3c(c2)OCO3)cc1` [Paroxetine, paroxetine]: the inhibition (as a rule, the drop in the measured response relative to a control, in per cent) at 30 min, 1 µM at CYP2D6 [1] (% Inhibition of (R)-EDDP production, Supersome) is 9.9%; at CYP2D6 [1] (% Inhibition of (S)-EDDP production, Supersome), 7.6%; at CYP2D6 [1] (Inhibition of Supersome 2D6 activity), < 30%; in the data set on CYP2D6 [2] (1 µM), < 30%.

For `O=C(c1ccc(OCCN2CCCCC2)cc1)c1c(-c2ccc(O)cc2)sc2cc(O)ccc12` [Raloxifene, raloxifene], the inhibition at 15 min, 30 µM at CYP3A4 [3] (setting [7]) came to 96.8%; at CYP3A4 [3] (setting [8]) it was 97.2%.

For the compound `CCC1=NC(C)CC1(c1ccccc1)c1ccccc1` (stereo not drawn) [EMDP, 2-ethyl-5-methyl-3,3-diphenylpyraline], in data set [4], the “EMDP production from methadone” value is “no EMDP production was noted”.

Take `NNC(=O)c1ccncc1` [Isoniazid, isoniazid]: the inhibition at 15 min, 500 µM was 70.8% in the data set on CYP3A4/5 (setting [7]), 51.4% with CYP3A4/5 (setting [8]), 96.9% at CYP3A4 [3] (setting [7]) and 96.9% on CYP3A4 [3] (setting [8]).

As to `CC=C1N(C)[C@@H](C)CC1(c1ccccc1)c1ccccc1` [(S)-EDDP], the “Scaled contribution of CYP to formation of R- and S-EDDP” value (shortened to “Scaled contribution of CYP”) in the data set on CYP1A2 (setting [9]) stood at 0.0%; with CYP1A2 (setting [10]) it was 0.0%; with CYP2A6 (setting [9]), 0.0%; in the data set with CYP2A6 (setting [10]), 0.0%; in the data set with CYP2B6 (setting [9]) it was 18.5%; with CYP2B6 (setting [10]), 26.7%. Moreover, the “Scaled contribution of CYP” value in the data set on CYP2C8 (setting [9]) is listed as 0.2%; in the data set with CYP2C8 (setting [10]), 0.4%; with CYP2C9*1 (setting [9]), 0.4%; with CYP2C9*1 (setting [10]), 1.1%; in the data set on CYP2C18, 0.9%; with CYP2C19 (setting [9]) it was 4.4%. The “Scaled contribution of CYP” value in the data set on CYP2C19 (setting [10]) worked out at 1.6%; in the data set on CYP2D6*1 (setting [9]) it was 1.3%; with CYP2D6*1 (setting [10]), 0.6%; in the data set on CYP3A4 [5] (setting [9]) it was 74.3%; in the data set with CYP3A4 [5] (setting [10]), 69.6%. In data set [6], the “Correlation (r) of EDDP formation with testosterone 6β-hydroxylation catalyzed by CYP3A” value is given as 0.54.

For `C=C[C@H]1C[N@@]2CC[C@H]1C[C@@H]2[C@@H](O)c1ccnc2ccc(OC)cc12` [Quinidine, quinidine], the inhibition at 30 min, 10 µM in the data set with CYP2D6 [2] (10 µM) is < 30%.

`CC=C1N(C)[C@H](C)CC1(c1ccccc1)c1ccccc1` [(R)-EDDP]: the “Scaled contribution of CYP” value is on record as 0.0% in the data set with CYP1A2 (setting [9]); 0.0% in the data set with CYP1A2 (setting [10]); 0.0% in the data set with CYP2A6 (setting [9]); 0.0% in the data set on CYP2A6 (setting [10]); 11.5% with CYP2B6 (setting [9]); 17.8% in the data set on CYP2B6 (setting [10]). In addition, the “Scaled contribution of CYP” value with CYP2C8 (setting [9]) came out at 0.4%; in the data set on CYP2C8 (setting [10]), 0.9%; in the data set with CYP2C9*1 (setting [9]), 1.2%; with CYP2C9*1 (setting [10]) it was 3.7%; with CYP2C18, 0.7%; in the data set with CYP2C19 (setting [9]) it was 14.4%. Also, the “Scaled contribution of CYP” value was 5.8% with CYP2C19 (setting [10]); 1.0% with CYP2D6*1 (setting [9]); 0.5% with CYP2D6*1 (setting [10]); 70.7% in the data set with CYP3A4 [5] (setting [9]); 71.3% in the data set with CYP3A4 [5] (setting [10]). In [6], the “Correlation (r) of EDDP formation with testosterone 6β-hydroxylation catalyzed by CYP3A” value was 0.82.
